Entries after “also recorded” stand apart in the source; their conditions may differ.
Tests used:
[1] = biological target: T1, human 5-HT2A (h5-HT2A) receptor (Homo sapiens, UniProt P28223); test: FLIPR assay: human 5-HT2A (agonist mode); format: cell-based; details: @10 μM (head); footnote: curve fitting with activation (%) @ 10 mM with RFU; RFU=Fmax−Fmin
T1 construct: expressed in transfected cells; host or cells: HEK293 (HTR2A&Ga15-HEK293, tetracycline-induced)
Experimental: Assessment of the effect of exemplary compounds of Formula I targeting on human 5-HT2A (h5-HT2A) receptor under agonist mode.
HTR2A&Ga15-HEK293 cells were cultured in DMEM medium containing 10% dialyzed FBS and 1x penicillin-streptomycin, 100 μg/mL Hygromycin B and 300 μg/mL G418. The cells were passaged about three times a week, maintained between ~30% to ~90% confluence.
• 1. The cell culture medium (DMEM medium containing 10% dialyzed FBS and 1× penicillin-streptomycin, 100 μg/mL Hygromycin B and 300 μg/mL G418), TrypLE™ Express and DPBS to R.T. was warmed in advance. • 2. For induction, 1 μg/ml tetracycline (final concentration) was added to cell culture medium and incubated for 48 hours prior to seeding cells into plate at 37° C., 5% (v/v) CO2. The cell culture medium was removed from flask. Cells were washed with DPBS. • 3. 2 mL TrypLE™ Express was added to the flask, mixed well by gentle shaking and cells were incubated at 37° C. for a few minutes. • The cells were checked for morphological change under microscope, the digestion was stopped by adding 4 mL cell culture medium to the flask when most of cells turned to round. • 5. The cell suspension was transferred into a 15 mL centrifuge tube, and then centrifuged at 1,200 rpm for 5 minutes. • 6. The supernatant was removed. The cell pellet was resuspended with 2 mL cell culture medium. • 7. The cell density was counted using cell counter. Only cells with >85% viability were used for the assay. • 8. Cells were diluted to 6.67×10^5/mL with cell culture medium. • 9. 30 μL/well cell suspensions added into a 384-well cell plate (The cell density was 20,000 cells/well). • 10. The cell plate was incubated overnight at 37° C., 5% (v/v) CO2. 2.3 Cell handling • 1. On the day of experiments, culture medium was removed from the cell plate. • 2. 10 μL of assay buffer (20 mM HEPES, in 1×HBSS, pH 7.4) was added to each well of the cell plate. • 3. 2×dye solution was prepared following the manual of the FLIPR® Calcium 6 Assay Kit: • i. The dye was diluted with assay buffer. • ii. Probenecid was added to the final concentration of 5 mM. • iii. Vortexed vigorously for 1-2 minutes. • 4. 10 μL of 2× dye solution was added to each well of the cell plate • 5. The cell plate was placed on plate shaker, followed by shaking at 600 rpm for 2 minutes. • 6. The plate was incubated at 37° C. for 2 hours followed by an additional 15-minute incubation at 25° C. 2.4 Prepare 3×compound • 1. Serotonin HCl was prepared to the concentration of 10 mM with DMSO. • 2. The test compounds were prepared to the concentration of 10 mM with DMSO. • 3. The compounds were added to a 384-well compound source plate. • 4. 3-folds serial dilutions were performed with DMSO. • 5. 90 nL/well of serial diluted compounds was transferred from source plate to a 384-well compound plate by using an Echo. • 6. 30 μL/well of assay buffer (20 mM HEPES in 1x HBSS, pH 7.4) was added to the compound plate. • 7. The plate was mixed on-plate shaker for 2 minutes.
• 1. After the cells were incubated with dye solution, the cell plate, compound plate containing 3×compounds and FLIPR tips were placed into FLIPR. • 2. 10 μL of 3×compounds transferred from the compound plate to the cell plate by FLIPR. • 3. The plate was read for 160 sec with 1 sec interval and the data of agonist mode was obtained.
(§1) • 1. The normalized fluorescence reading (RFU) was calculated as shown below, wherein Fmax and Fmin stand for maximum and minimum of calcium signal during defined time window:
RFU=Fmax−Fmin • 2. EC50 by fitting RFU against log of compound concentrations with Hill equation was calculated using XLfit.
The following procedure can also be followed: • 1. Cells are cultured in cell culture medium (DMEM containing 10% FBS, 1× penicillin-streptomycin 300 μg/ml G418 and 100 μg/ml hygromycin B) at 37° C., 5% (v/V) CO2. • 2. One day before the assays, the cells are detached using TrypLE™ Express and cells are counted using cell counter.

human 5-HT2A receptor = human 5-HT2A receptor (Homo sapiens, UniProt P28223); test: Human 5-HT2A: Radioligand binding assay ([3H]-ketanserin); details: [3H]-ketanserin displacement, 27° C., 90 min, pH 7.4; read-out: h5-HT2A, IC50
Chain of human 5-HT2A receptor (P28223 whole entry): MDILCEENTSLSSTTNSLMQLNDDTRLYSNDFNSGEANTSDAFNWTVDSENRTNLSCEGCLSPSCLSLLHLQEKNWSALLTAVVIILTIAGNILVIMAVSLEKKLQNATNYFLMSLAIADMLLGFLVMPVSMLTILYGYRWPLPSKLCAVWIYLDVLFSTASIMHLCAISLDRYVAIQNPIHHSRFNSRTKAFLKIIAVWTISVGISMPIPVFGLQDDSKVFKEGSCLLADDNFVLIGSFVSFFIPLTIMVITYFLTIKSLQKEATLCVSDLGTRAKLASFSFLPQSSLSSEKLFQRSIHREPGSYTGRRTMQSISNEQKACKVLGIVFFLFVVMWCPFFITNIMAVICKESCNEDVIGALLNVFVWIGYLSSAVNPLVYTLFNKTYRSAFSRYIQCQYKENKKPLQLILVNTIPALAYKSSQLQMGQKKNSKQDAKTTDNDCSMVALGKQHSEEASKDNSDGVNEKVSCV
Experimental: Exemplary compounds of Formula I were evaluated functionally using FLIPR assay for their effect on h5-HT2A receptor under agonist mode. The objective of this study was to evaluate the binding properties of exemplary compounds of Formula I on 5-hydroxytryptamine receptor 2A (5-HT2A). • Human 5-HT2A: Radioligand binding assay:
• i. The assay buffer was prepared following the table below.
• Adjust pH to 7.4 followed by […] sterile filtration • ii. 8 doses of reference and test compounds starting from 10 mM stock solution as required was prepared by 5-fold serial dilutions with 100% (v/v) DMSO. • iii. UniFilter-96 GF/B plate was pretreated: • a. 50 μl/well of 0.5% (v/v) PEI was added to UniFilter-96 […] plates. The plates were sealed and incubated at 4° C. for 3 hrs. • b. After incubation, the plates were washed 3 times with ice-cold wash buffer (50 mM Tris, pH7.4). • iv. The assay plate was prepared: • a. Cell membrane was diluted with assay buffer and 330 μl/well was added to 96 round deep well plates to reach a concentration of 20 μg/well. • b. 8 concentrations of reference or test compounds were prepared and 110 μl/well was added to 96 round deep well plates. • c. [3H]-ketanserin was diluted with assay buffer to 5 nM (5X final concentration) and 110 μl/well was added to 96 round deep well plates. • v. The plate was centrifuged at 1000 rpm for 30 secs and then agitated at 600 rpm, R.T. for 5 min. • vi. The plates were sealed and the plate incubated at 27° C. for 90 min. • vii. The incubation was stopped by vacuum filtration onto GF/B filter plates followed by 4 times washing with ice-cold wash buffer (50 mM Tris, pH7.4). • viii. The plates were dried at 37° C. for 45 min. • ix. The filter plates were sealed and 40 μl/well of scintillation cocktail was added. • x. The plate was read by using a Microbeta2 microplate counter.
• 1. For reference and test compounds, the results were expressed as % Inhibition, using the normalization equation: N=100−100×(U−C2)/(C1-C2), where U is the unknown value, C1 is the average of high controls, and C2 is the average of low controls. • 2. The IC50 was determined by fitting percentage of inhibition as a function of compound concentrations with Hill equation using XLfit.

[2] = system: brain's default mode network; details: intravenously administered; cited from earlier work
[3] = system: depression and anxiety associated with life-threatening disease; details: in a supportive setting; cited from earlier work
5-HT2 receptor = details: daily administration; cited from earlier work
Plasma stability, rat = format: in vitro ADME; details: 37° C.
Experimental: (§2) • a. […] The final concentration of organic solvents was 0.5%. The assay was performed in duplicated. • b.
(§3) All calculations were carried out using Microsoft Excel.

Plasma stability, mouse = format: in vitro ADME; details: 37° C.
Experimental: as §2, §3

Plasma stability, human = format: in vitro ADME; details: 37° C.
Experimental: as §2, §3

human 5-HT1A receptor = biological target: T2, human 5-HT1A receptor (Homo sapiens, UniProt P08908); test: Human 5-HT1A: Functional FLIPR assay (agonist mode); format: cell-based; details: @10 μM (head); footnote: curve fitting with activation (%) @ 10 mM with RFU; RFU=Fmax−Fmin
T2 construct: expressed in transfected cells; host or cells: CHO (HTR1A&Ga15-CHO)
T2 sequence (P08908 1-422): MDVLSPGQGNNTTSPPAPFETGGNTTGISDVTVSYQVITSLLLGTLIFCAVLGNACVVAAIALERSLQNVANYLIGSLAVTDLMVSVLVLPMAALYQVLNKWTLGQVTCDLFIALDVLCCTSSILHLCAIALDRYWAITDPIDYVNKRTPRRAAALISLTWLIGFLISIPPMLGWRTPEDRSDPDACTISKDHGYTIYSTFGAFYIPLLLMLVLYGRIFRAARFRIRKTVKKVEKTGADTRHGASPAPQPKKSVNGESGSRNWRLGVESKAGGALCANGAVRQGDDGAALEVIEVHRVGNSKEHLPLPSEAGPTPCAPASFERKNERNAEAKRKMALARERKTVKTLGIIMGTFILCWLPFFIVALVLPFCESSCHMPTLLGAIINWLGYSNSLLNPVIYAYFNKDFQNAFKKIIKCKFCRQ
Experimental: The potential excitatory effects of compounds targeting on 5-hydroxytryptamine receptor 1A (5-HT1A) under agonist mode was assessed.
HTR1A&Ga15-CHO cells were cultured in DMEM/F12 medium containing 10% dialyzed FBS, 1x penicillin-streptomycin and 600 μg/mL Hygromycin B. The cells were passaged about three times a week, maintained between ~30% to ~90% confluence.
• 1. The cell culture medium (DMEM/F12 medium containing 10% dialyzed FBS, 1x penicillin-streptomycin and 600 μg/mL Hygromycin B), TrypLE™ Express and DPBS was warmed to R.T. in advance. • 2. The cell culture medium was removed from flask. Washed cells with DPBS. • 3. 1 mL TrypLE™ Express was added to the flask, mixed well by gentle shaking and cells were incubated at 37° C. for a few minutes. • 4. The cells were checked for morphological change under microscope, the digestion was stopped by adding 2 mL cell culture medium to the flask when most of cells turned to round. • 5. The cell suspension was transferred into a 15 mL centrifuge tube, and then centrifuged at 1,200 rpm for 5 minutes. • 6. The supernatant was removed. The cell pellet were resuspended with 2 mL cell culture medium. • 7. The cell density were counted using cell counter. Only cells with >85% viability were used for the assay. • 8. Cells were diluted to 4×10^5/mL with cell culture medium. • 9. 30 μL/well cell suspensions were added into a 384-well cell plate (The cell density was 12,000 cells/well). • 10. The cell plate was incubated overnight at 37° C., 5% (v/v) CO2.
• 1. On the day of experiments, culture medium was removed from the cell plate. • 2. 10 μL of assay buffer (20 mM HEPES, in 1×HBSS, pH 7.4) was added to each well of the cell plate. • 3. 2× dye solution was prepared following the manufacture's instruction of the FLIPR® Calcium 6 assay kit: • i. The dye was diluted with assay buffer. • ii. probenecid was added to the final concentration of 5 mM. • iii. Vortexed vigorously for 1-2 minutes, adjust pH to 7.4. • 4. 10 μL of 2×dye solution was added to each well of the cell plate. • 5. The cell plate was placed on plate shaker, followed by shaking at 600 rpm for 2 minutes. • 6. The plate was incubated at 37° C. for 2 hours followed by an additional 15-minute incubation at 25° C. 3.4 Prepare 3×compounds. • 1. Serotonin was prepared to the concentration of 10 mM with DMSO, 3-folds serial dilutions were performed with DMSO. • 2. Prepare the test compound to the concentration of 10 mM with DMSO, preform 3-folds serial dilutions with DMSO. • 3. The compounds were added to a 384-well compound source plate. • 4. 90 nL/well of serial diluted compounds were transferred from source plate to a 384-well compound plate by using an Echo. • 5. 30 μL/well of assay buffer was added to the compound plate. • 6. The plate was mixed on-plate shaker for 2 minutes. 3.5 FLIPR assay • 1. After the cells incubate with dye solution, the cell plate, compound plate containing 3×compounds and FLIPR tips were placed into FLIPR. • 2. 10 μL of 3×compounds were transferred from the compound plate to the cell plate by FLIPR. • 3. The plate was read for 160 sec with 1 sec interval to obtain the data of agonist mode.
as §1
RFU=Fmax−Fmin • 2. EC50 was calculated by fitting RFU against log of compound concentrations with Hill equation using XLfit.

[4] = 30 min, read-out: Remaining Percentage (%), 30 min
[5] = 60 min, read-out: Remaining Percentage (%), 60 min
[6] = >255.85 if remaining at 60 min greater than 85%

T1 sequence (P28223 whole entry): as the sequence (P28223 whole entry) above

For `COc1ccc2c(c1)N(C[C@@H]1CCCN1C)CC2` [(S)-I-58, (S)-6-Methoxy-1-((1-methylpyrrolidin-2-yl)methyl) indoline], the “RFU@10 μM” value [1] was 203 RFU and the IC50 (human 5-HT2A receptor) was over 30 µM.

For `CCN(CC)C(=O)[C@@H]1C=C2c3cccc4[nH]cc(c34)C[C@H]2N(C)C1` [LSD], the “oscillatory power in areas of the brain's default mode network” value [2] is given as “decreases in oscillatory power in areas of the brain's default mode network”, the “anti-depressant and anxiolytic effects” value [3] is given as “significant and sustained anti-depressant and anxiolytic effects” and the “5-HT2 receptor density in rat brain” value (5-HT2 receptor) is given as “selectively decreased 5-HT2 receptor density in the rat brain; also recorded: reduce 5-HT2 receptor density in rat brain”.

For `CC[C@H](C)C(=O)O[C@H]1C[C@@H](C)C=C2C=C[C@H](C)[C@H](CC[C@@H]3C[C@@H](O)CC(=O)O3)[C@H]21` [Lovastatin, reference compound], the “Remaining Percentage (%), 0 min” value (Plasma stability, rat; 0 min) was 100.00%, the remaining at 0.5 h (Plasma stability, rat; [4]) was 0.61% and the remaining at 1 h (Plasma stability, rat; [5]) was 0.33%.

With `CC(C)[N+](C)(CCOC(=O)C1c2ccccc2Oc2ccccc21)C(C)C` [Propantheline, reference compound] the “Remaining Percentage (%), 0 min” value (Plasma stability, mouse; 0 min) was 100.00%, the remaining at 0.5 h (Plasma stability, mouse; [4]) was 61.6% and the half-life (Plasma stability, mouse; [6]) was 37.1 min. The “Remaining Percentage (%), 0 min” value (Plasma stability, human; 0 min) was 100.00%, the remaining at 0.5 h (Plasma stability, human; [4]) was 29% and the remaining at 1 h (Plasma stability, human; [5]) was 2.58%. The half-life (Plasma stability, human; [6]) was 11.4 min.

For `CN(C)CCc1c[nH]c2cccc(O)c12` [Psilocin, 4-hydroxy-N,N-dimethyltryptamine, reference compound], the “RFU@10 μM” value (human 5-HT1A receptor) was 140 RFU.

— patent publication US20260356814A1, “INDOLINE DERIVATIVES AS SEROTONERGIC AGENTS USEFUL FOR THE TREATMENT OF DISORDERS RELATED THERETO” (MINDSET PHARMA INC., priority 2022, published 2026)
